{"source": "patent US20190183939A1", "about": "“CELL THERAPY USING MIDBRAIN-TYPE NEURAL STEM CELLS TREATED WITH VITAMIN C” (INDUSTRY-UNIVERSITY COOPERATION FOUNDATION HANYANG …, priority 2017, published 2019)", "key": {"[1]": {"test_system": "GAD67, TPH2 and GFAP promoters", "assay": "DIP-qPCR and ChIP-qPCR on GAD67, TPH2 and GFAP promoters", "format": "cell-based, rat", "settings": "VC administration to proliferating VM-NSCs", "text": "Foxa2 and Nurr1 binding sites were identified using the Jaspar database (http://jaspar.genereg.net/) using an 80% score threshold. Predicted Foxa2 and Nurr1 binding sites were coupled with phylogenetic footprinting to eliminate spurious predictions with specified position weight matrix (PWM) settings, as described in the following reference. [Sandelin, A., and Wasserman, W. W. (2004). Constrained binding site diversity within families of transcription factors enhances pattern discovery bioinformatics. Journal of molecular biology 338, 207-215] (Table 2). ChIP and DIP assays were carried out as described in the following reference. [Prolonged membrane depolarization enhances midbrain dopamine neuron differentiation via epigenetic histone modifications. Stem Cells 29, 1861-1873]. Briefly, chromatin or genomic DNA was sheared to an average of 200-500 bp in length using a sonication Bioruptor (BMS, Seoul, Korea) and immunoprecipitated using the antibodies listed in Table 1. Immunoprecipitated DNA fragments were collected using magnetic beads (Invitrogen), purified, and subjected to real-time PCR using the primers listed in Table 3. The comparative cycle threshold method was used to quantify the results. Data were normalized to the input DNA."}, "[2]": {"test_system": "cultures differentiated from VM-NSCs", "assay": "Differentiated cell survival/death, DNA damage and resistance against toxins", "format": "cell-based, rat", "experimental": "The cell growth profile during NSC expansion with several cell passages was generated by counting the number of viable cells at the end of each passage. Cell expansion of each NSC passage was further estimated by the population doubling level (PDL, the level at which the number of cells is doubled), which was determined by log(N/NO)/log 2 (where N is the number of cells at the end of each passage; NO is the number of cells plated initially (1×10^5 cells/cm^2)). DA neuronal cell survival in the absence or presence of toxic insults (500-1000 uM of H2O2 or 6-OHDA) was determined by counting viable TH^+ cells after staining. General cell death and DNA damage were estimated by ethidium heterodimer 1 (EthD1) (Molecular Probes) and γH2AX staining, respectively."}, "[3]": {"test_system": "global 5hmC/5mC and H3K27m3/H3K9m3 levels in VM-NSCs", "assay": "Global epigenetic code determination (dot blot, western blot, immunocytochemistry)", "format": "cell-based, rat", "experimental": "Cultured cells and cryosectioned brain slices were fixed with 4% paraformaldehyde (PFA), and blocked for 40 minutes in blocking solution (Blocking solution: 1% BSA+0.3% Triton X-100). For 5hmC and 5mC staining, the fixed cells were incubated with 2 N HCl for 20 minutes before the blocking reaction. The samples were incubated overnight at 4° C. in the blocking solution containing the primary antibodies listed in Supplemental Table 1. Secondary antibodies tagged with Alexa 488 (1:200, Invitrogen, Carlsbad, Calif.) and Cy3 (1:200, Jackson Immunoresearch Laboratories, West Grove, Pa.) were applied. Stained samples were mounted in Vectashield medium containing 40,6-diamidino-2-phenylindole (DAPI; Vector Laboratories, West Grove, Pa.) and analysed under an epifluorescence (Leica, Wetzlar, Germany) or confocal microscope (Leica TSP SP5).\nDNA dot blot analysis for 5hmC/5mC was performed as described in the following reference. [He, X. B., Kim, M., Kim, S. Y., Yi, S. H., Rhee, Y. H., Kim, T., Lee, E. H., Park, C. H., Dixit, S., Harrison, F. E., et al. (2015). Vitamin C facilitates dopamine neuron differentiation in fetal midbrain through TET1- and JMJD3-dependent epigenetic control manner. Stem Cells 33, 1320-1332]. Briefly, genomic DNA was extracted and quantified. Genomic DNA (80 ng) was spotted on nitrocellulose membranes, air dried, and exposed in UV for 20 minutes. After blocking with 5% bovine serum albumin (BSA)/Tris-buffered saline-Tween 20 at room temperature for 2 hours, the membrane was incubated in anti-5hmC (Active Motif, Carlsbad, Calif.) and anti-5mC (Abcam, Cambridge, UK) antibodies at 4° C. overnight. Western-blots for determining global histone modification changes were performed as described in the following reference. [Rumbaugh, G., and Miller, C. A. (2011). Epigenetic changes in the brain: measuring global histone modifications. Methods Mol Biol 670, 263-274]. […] Positive bands were detected and captured by ChemiDoc (Bio-Rad, Hercules, Calif.), and the intensities of the bands were quantified using ImageJ software (http://imagej.nih.gov/ij)."}, "JMJD3": {"test_system": "JMJD3", "assay": "Jmjd3 enzyme activity in nuclear fraction", "format": "biochemical, rat", "settings": "VC 200 μM, 4 days of proliferation", "experimental": "TET and JMJD3 activities were measured using Epigenase™ 5mC hydroxylase TET Activity/Inhibition Assay Kit and Epigenase™ JMJD3/UTX Demethylase Activity/Inhibition Assay Kit (Epigentek, Farmingdale, N.Y.), respectively. Briefly, cells from two 10 cm-dishes were harvested after 4 days of proliferation with or without VC (200 μM) treatment. Nuclear fractions were obtained from the cells using the EpiQuik nuclear extraction kit (Epigentek), and subjected to enzyme activity analyses."}}, "data": [{"smiles": "O=C1O[C@H]([C@@H](O)CO)C(O)=C1O", "note": "[VC, L-ascorbic acid]", "values": [{"measurement": "epigenetic codes on TPH2 and GAD67 genes", "setting": "[1]", "result": "did not affect"}, {"measurement": "DA neurons died after exposure to H2O2 or 6-OHDA", "setting": "[2]; 500 and 1000 μM for 8 hours at D8, VC during expansion", "result": "remarkably lower proportions"}, {"measurement": "γH2AX foci, % cells with >3 foci", "setting": "[2]; D12 as printed, VC during expansion", "result": 24.3, "unit": "%"}, {"measurement": "cell death (EthD-1+ dead cell counting)", "setting": "[2]; differentiation D8, VC during NSC expansion and passaging", "result": "considerably reduced"}, {"measurement": "global 5mC levels", "setting": "[3]; D0", "result": "significant decrease"}, {"measurement": "global levels of H3K27m3 and H3K9m3", "setting": "[3]; D0", "result": "reduced"}, {"measurement": "global 5hmC levels", "setting": "[3]; D0, immunoblotting and immunocytochemical analyses", "result": "greatly increased"}, {"measurement": "Jmjd enzyme activity in nuclear fractions", "setting": "JMJD3", "result": "increase"}]}]}
